For assay [1], the system named is HOS cells. The assay can be described thus: RNA sequencing of treated HOS cells. Particulars: T0070907 at 25 μM for 24 h. The format is cell-based, human.
The subject of a further assay is MAP-217 PT PDX model. The assay can be described thus: Osteosarcoma orthotopic (paratibial) PDX model MAP-217. The class given is in vivo, NSG mice. As to conditions: IP 10 mg/kg/injection daily. An excerpt:
Experiments were validated by the CEEA26, Ethic committee (approval number APAFIS #27183-2020091414229028 v3) and carried out under conditions established by the European Community (Directive 2010/63/UE). Animals were purchased at Gustave Roussy (Villejuif, France) and maintained in the respective animal facilities following standard animal regulation, health and care, and ethical controls. Osteosarcoma PDXs were established from relapsed patients by transplantation in immunocompromised NSG mice and considered as established when tumor growth was sustained after at least two in vivo passages. […] Clinical status, tumor uptake and tumor growth will be evaluated one to 3 times a week. Paratibial tumor was detected by palpation and tumor gross appearance (caliper measurements). […] Mice were then anesthetized and bone structure alterations were analyzed by CTscan imaging. […]
Groups of 8 animals bearing the same OTS orthotopic PDX model were treated from day 14 after tumor implantation with intraperitoneal (IP) injection (volume of 10 m/kg) every day with either T0070907 (10 mg/Kg/injection) or with vehicle (saline, control group). […] Clinical status, tumor uptake and tumor growth were evaluated each two days. Paratibial tumors were detected by palpation, tumor gross apparition (caliper measurements). […]

Assay [2] has as its system 8 osteosarcoma parental cell lines. The assay can be described thus: In vitro cell viability (MTS assay), 72 h. The format is cell-based, human. How it is done: (§1) Parental HOS, 143B, MG-63, IOR/OS18, resistant derived HOS R/MTX and derived PPARγ shRNA or overexpressing PPARγ cell lines were seeded at 5000 cells/well, parental, Saos2, Saos-2B, IOR/OS14, resistant derived HOS R/DOXO and derived PPARγshRNA or overexpressing PPARγ lines were seeded at 10,000 cells/well in a 96-well plate in DMEM supplemented with 10% FBS for both assays.
(§2) The day after seeding, cells were incubated in the presence of a range of drug concentrations for 72 h (from 0 to 100 μmol/L for DOXO, MAF; 0 to 500 μmol/L for MTX, T0070907, Rosiglitazone (RGZ) and Troglitazone (TGZ)). Cell viability was evaluated using the CellTiter 96 Aqueous One Solution Cell Proliferation Assay (MTS assay) (Promega, Charbonnieres, France), according to the manufacturer instructions. The half-maximal inhibitory concentration (IC50) was determined using the GraphPad Prism5 software (Graphpad Software Inc., California, USA).

For assay [3], the system named is HOS cells. The assay can be described thus: In vitro cell viability (MTS assay), HOS. The format is cell-based, human. How it is done: as §1, §2
On the technique in general: Formazan colour is commonly taken as a measure of viable cells.

Assay [4] has as its system 7 human osteosarcoma lines. The assay can be described thus: MTS cell proliferation assay, 48 and 72 h (first Example 2). The class given is cell-based. As to conditions: MTS test. How it is done: HOS, 143B, MG-63, U2OS and IOR/OS18 cell lines were seeded at 5,000 cells per well, Saos-2, Saos-2-B and IOR/OS14 cell lines were seeded at 10,000 cells per well in a 96-well plate containing a final volume of 100 μl/well and left to settle overnight in DMEM with 10% fetal calf serum.
The cells were treated with different drugs (PPARγ agonists troglitazone (TGZ) or rosiglitazone (RGZ), or PPARγ antagonist T0070907, dissolved in DMSO) at concentrations ranging from 0 μmol/l to 100 μmol/L. The control (untreated cells) get the same volume of DMSO when the cells are treated (10 μl per 1 ml). Cell viability was determined 48 and 72 hours after exposure. Old medium was removed and a solution with MTS/new medium (20 μl of MTS solution−final concentration 0.33 mg/ml) (CellTiter 96 Aqueous One Solution Cell Proliferation Assay; Promega Corporation, Charbonnieres, France) was added. A set of wells were prepared only with MTS/new medium for background subtraction at the same time. An incubation from 1 to 7 hours at 37° C. (cell line metabolism dependent) was performed follow by a colorimetric measurement at 490 nm in an automatic plate reader (Elxb808; Fisher Bioblock Scientific SAS, Illkirch, France).

The pIC50 is the IC50 on a negative log10 scale, so that one unit is a factor of ten.

pIC50: −log10 of the molar value. Like-named read-outs stand apart in the source and are kept apart here.

Consider `O=C(Nc1ccncc1)c1cc([N+](=O)[O-])ccc1Cl` [T0070907], for which the “RNA sequencing: transcription programs induced” value in the assay on HOS cells [1] was “induction of pro-apoptotic and osteoblastic differentiation programs”. Also, in the assay with MAP-217 PT PDX model, the “delay to reach 2.5 time the initial leg volume, higher compared to control” value amounted to 20%. In the assay with MAP-217 PT PDX model (IHC human Ki67 at sacrifice), the lung metastases result was “decreased lung metastases in number and size”. In addition, the pIC50 in assay [2] (8 osteosarcoma parental cell lines, read-out: IC50, range over cell lines) is 4.43 to 5.03; in assay [2] (all 8 osteosarcoma parental cell lines, read-out: Median IC50), 4.70; in the assay on HOS cells [3] it was 4.60; in assay [4] (read-out: IC50 (cell viability), range over cell lines), 4.74 to 5.05; in assay [4] (read-out: median IC50 (cell viability)), 4.70.

The values above are taken from patent publication US20240301499A1, “METHOD FOR IDENTIFYING HARD-TO-TREAT OSTEOSARCOMA PATIENTS AT DIAGNOSIS AND IMPROVING THEIR OUTCOME BY PROVIDING NEW THERAPY” (Institut Gustave Roussy, priority 2021, published 2024).
